Experimental data from BindingDB's records for patent US20240425513 (Carmot Therapeutics, 2024).

Target: T1, Ubiquitin carboxyl-terminal hydrolase 28 (Homo sapiens, UniProt Q96RU2)
T1 sequence (Q96RU2 whole entry): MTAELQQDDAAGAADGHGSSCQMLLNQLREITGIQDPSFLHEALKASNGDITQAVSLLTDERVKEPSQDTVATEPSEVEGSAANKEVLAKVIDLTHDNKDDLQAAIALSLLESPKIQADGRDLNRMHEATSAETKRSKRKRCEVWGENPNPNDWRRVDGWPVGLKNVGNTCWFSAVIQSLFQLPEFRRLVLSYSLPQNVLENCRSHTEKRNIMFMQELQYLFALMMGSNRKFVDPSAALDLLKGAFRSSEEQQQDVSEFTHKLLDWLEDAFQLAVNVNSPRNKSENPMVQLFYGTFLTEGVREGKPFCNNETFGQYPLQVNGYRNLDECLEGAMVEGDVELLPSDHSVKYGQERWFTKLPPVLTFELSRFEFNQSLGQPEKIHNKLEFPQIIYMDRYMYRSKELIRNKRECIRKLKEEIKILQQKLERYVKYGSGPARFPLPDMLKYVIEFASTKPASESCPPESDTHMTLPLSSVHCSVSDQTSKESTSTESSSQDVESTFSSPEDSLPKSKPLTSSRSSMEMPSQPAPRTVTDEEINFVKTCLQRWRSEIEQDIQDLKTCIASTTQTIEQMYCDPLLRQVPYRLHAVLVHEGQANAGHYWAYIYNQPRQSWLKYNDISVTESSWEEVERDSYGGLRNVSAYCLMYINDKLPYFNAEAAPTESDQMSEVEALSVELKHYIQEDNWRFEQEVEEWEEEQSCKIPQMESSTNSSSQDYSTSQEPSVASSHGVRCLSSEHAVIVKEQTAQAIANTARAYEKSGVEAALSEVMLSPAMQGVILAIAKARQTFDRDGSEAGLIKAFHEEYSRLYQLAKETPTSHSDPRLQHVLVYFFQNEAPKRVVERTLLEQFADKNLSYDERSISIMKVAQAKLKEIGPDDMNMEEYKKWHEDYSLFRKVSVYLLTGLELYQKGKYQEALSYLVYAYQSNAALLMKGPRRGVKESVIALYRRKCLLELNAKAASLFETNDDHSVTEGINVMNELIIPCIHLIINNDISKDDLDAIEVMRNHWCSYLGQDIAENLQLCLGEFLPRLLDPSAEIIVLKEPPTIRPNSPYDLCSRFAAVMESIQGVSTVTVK
Test: Ubiquitin-Rhodamine 110 Assay
Experimental: Enzyme (His6 USP28, BostonBiochem, #E-570) concentration and incubation times were optimized for the maximal signal to background while maintaining the initial velocity conditions at a fixed substrate concentration. […] 2 μl of 4× enzyme was added to assay plates (pre stamped with compound) and incubated for 2 h at room temperature. […] of 4× substrate was subsequently added to the assay plates and incubated for 2 h at room temperature.

SMILES: CC(Oc1ccc(-c2nc(Cc3cccc(Cl)c3)no2)cc1)C(=O)N[C@@H]1C[C@@H](C)N(C#N)C1 (stereo partly specified) [US20240425513, Example 11]
- IC50: > 1 µM
